Source: patent publication US10233195B2, “Anti-fibrotic pyridinones” (InterMune, Inc., priority 2014, dated 2019)

How the values were obtained:
[1] = test system: TGF-b induced Endothelin-1 production; experiment: ET-1 assay: inhibitory effect on TGF-b induced endothelin-1 production; assay type: cell-based; conditions: Homo sapiens, Fibroblast; fibroblasts, stimulant (TGFb, serum, LPA etc), ET-1 in media by ELISA, 4-parameter fit
Method in brief: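 Fibroblasts (primary human lung/dermal, HFL-1, 3T3) serum-starved 0-48 h, preincubated ~30 min with compound, then stimulated (TGFb, serum or LPA) for 16-48 h. Secreted ET-1 measured by ELISA; EC50 from 4-parameter logistic fit, with CC50 from ATPlite in the same wells.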

[2] = test system: Fibroblasts (primary human lung and dermal, HFL-1, 3T3 etc); experiment: Cell proliferation assay (BrdU incorporation); assay type: cell-based; conditions: HFL1, stimulant (LPA, TGFb, serum etc), 50% inhibition of the increase of BrdU incorporation
Description: Assay of Inhibitory Effect on Cell Proliferation (BrdU Incorporation)
Fibroblasts (primary human lung and dermal, HFL-1, 3T3 etc) were plated on a 96-well plate and serum starved for 24-48 hours. The media were then exchanged for media containing stimulants (LPA, TGFb, serum etc) and cultured further for 16-24 hours before BrdU addition. After culturing for another 8 hours, cells were washed with PBS and the amount of BrdU incorporated into the cells was assayed by absorbance at 450 nm using the Cell proliferation ELISA system (RPN250, Amersham LIFE SCIENCE). The difference between the amount of BrdU incorporated in the stimulant-added well and the amount of BrdU incorporated in the well containing no stimulant represented the amount of BrdU incorporation accelerated by stimulant. The increase of BrdU incorporation without the addition of test compounds was set as 100% and the concentration of compound with 50% inhibition in the increase of BrdU incorporation (IC50 value) was determined. The test compounds were added 0-30 min before stimulant addition.
Compounds of some embodiments were prepared according to synthetic methods described herein and assay data obtained for IC50 for BrdU inhibition. The assay data obtained is presented in Table 3, in which A=less than 50 μM, B=greater than or equal to 50 μM and less than or equal to 200 μM; and C=greater than 200 μM.

## Cc1cn(-c2ccccc2)c(=O)c2c1CCCC2 [Compound 29]
[1]
  EC50: 50 to 200 µM
[2]
  IC50: > 200 µM

## Cc1cc(=O)n(-c2ccc(OC(F)(F)F)cc2)cc1-c1cccc2c1OC(C)(C)O2 [Compound 207]
[1]
  EC50: 50 to 200 µM
[2]
  IC50: < 50 µM

## CC(C)c1ccc(=O)n(-c2ccccc2)c1 [Compound 285]
[1]
  EC50: > 200 µM
[2]
  IC50: > 200 µM

## Cc1cc(=O)n(-c2ccccc2NC(N)=O)cc1-c1ccc(F)cc1 [Compound 557]
[1]
  EC50: < 50 µM
[2]
  IC50: < 50 µM

## Cc1cc(=O)n(-c2ccc(OC(F)(F)F)cc2)cc1-c1cccc2c1OC(F)(F)O2 [Compound 415]
[1]
  EC50: < 50 µM
[2]
  IC50: < 50 µM

## O=c1c2[nH]nnc2c(-c2ccc(F)cc2)cn1-c1ccc(OC(F)(F)F)cc1 [Compound 681]
[1]
  EC50: 50 to 200 µM
[2]
  IC50: < 50 µM

## Cc1cc(=O)n(-c2ccc(OC(F)(F)F)cc2)cc1-c1cccc2c1OCO2 [Compound 203]
[1]
  EC50: < 50 µM
[2]
  IC50: < 50 µM

## Cc1cc(=O)n(-c2ccc(OC(F)(F)F)cc2)cc1-c1cccc2c1OCCO2 [Compound 204]
[1]
  EC50: < 50 µM
[2]
  IC50: < 50 µM

## CCOc1ccc(-n2cc(-c3cnn(C)c3)c3nccnc3c2=O)c(C)c1 [Compound 63]
[1]
  EC50: < 50 µM
[2]
  IC50: < 50 µM

## Cc1cc(-c2ccc(F)cc2)cn(-c2ccccc2)c1=O [Compound 351]
[1]
  EC50: < 50 µM
[2]
  IC50: 50 to 200 µM

## O=c1c2[nH]ncc2c(-c2ccc(F)cc2)cn1-c1ccc(OC(F)(F)F)cc1 [Compound 689]
[1]
  EC50: < 50 µM
[2]
  IC50: < 50 µM

## Cc1nc2c(=O)n(-c3ccc(OC(F)(F)F)cc3)cc(-c3cnn(C)c3)c2o1 [Compound 569]
[1]
  EC50: < 50 µM
[2]
  IC50: < 50 µM

## CCOc1ccc(-n2cc(-c3ccnnc3)c3nn(CC)nc3c2=O)c(C)c1 [Compound 685]
[1]
  EC50: < 50 µM
[2]
  IC50: < 50 µM

## Cc1cc(=O)n(-c2ccc(OC(F)(F)F)cc2)cc1-c1ccc2ccn(C)c2c1 [Compound 258]
[1]
  EC50: < 50 µM
[2]
  IC50: < 50 µM

## CC(=O)c1ccc(=O)n(-c2ccc(F)cc2)c1 [Compound 13]
[1]
  EC50: > 200 µM
[2]
  IC50: > 200 µM

## O=c1ccc(-c2cn[nH]c2)cn1-c1ccc(OC(F)(F)F)cc1 [Compound 374]
[1]
  EC50: < 50 µM
[2]
  IC50: 50 to 200 µM

## Cn1cc(-c2cn(-c3ccccc3)c(=O)c3c2CCCC3)cn1 [Compound 31]
[1]
  EC50: < 50 µM
[2]
  IC50: 50 to 200 µM

## Cn1cc(-c2cn(-c3ccc(OC(F)(F)F)cc3)c(=O)c3c2ncn3C)cn1 [Compound 665]
[1]
  EC50: < 50 µM
[2]
  IC50: 50 to 200 µM

## CN1C(=O)COc2c(-c3ccc(F)cc3)cn(-c3ccc(OC(F)(F)F)cc3)c(=O)c21 [Compound 53]
[1]
  EC50: > 200 µM
[2]
  IC50: > 200 µM

## Cc1cc(=O)n(-c2ccc(OC(F)(F)F)cc2)cc1-c1ccc2c(c1)N(C)C(=O)CO2 [Compound 210]
[1]
  EC50: < 50 µM
[2]
  IC50: > 200 µM

## CS(=O)(=O)n1cc(-c2ccc(=O)n(-c3ccccc3)c2)cn1 [Compound 71]
[1]
  EC50: > 200 µM
[2]
  IC50: > 200 µM

## CNC(=O)Nc1cccc(-n2cc(-c3ccc(F)cc3)c(C)cc2=O)c1 [Compound 419]
[1]
  EC50: 50 to 200 µM
[2]
  IC50: 50 to 200 µM

## Cc1cc(=O)n(-c2ccc(OC(F)(F)F)cc2)cc1-c1ccc2oc(=O)[nH]c2c1 [Compound 553]
[1]
  EC50: < 50 µM
[2]
  IC50: < 50 µM

## CCOc1ccc(-n2cc(-c3cnn(C)c3)c(NCc3ccccc3)cc2=O)c(C)c1 [Compound 543]
[1]
  EC50: < 50 µM
[2]
  IC50: < 50 µM

## Cn1cc(-c2cn(-c3ccc(OC(F)(F)F)cc3)c(=O)c3ncn(C)c23)cn1 [Compound 59]
[1]
  EC50: < 50 µM
[2]
  IC50: < 50 µM

## Cn1cc(-c2cn(-c3ccc(OC(F)(F)F)cc3)c(=O)c3c2nnn3CCF)cn1 [Compound 684]
[1]
  EC50: 50 to 200 µM
[2]
  IC50: < 50 µM

## O=c1cc(O)c(-c2ccc(F)cc2)cn1-c1ccc(OC(F)(F)F)cc1 [Compound 86]
[1]
  EC50: 50 to 200 µM
[2]
  IC50: < 50 µM

## Cc1cc(=O)n(-c2ccc(OC(F)(F)F)cc2)cc1-c1ccc2ncsc2c1 [Compound 260]
[1]
  EC50: 50 to 200 µM
[2]
  IC50: < 50 µM

## CCn1nc2c(-c3cnn(C)c3)cn(-c3ccc(OC(F)(F)F)cc3)c(=O)c2n1 [Compound 619]
[1]
  EC50: < 50 µM
[2]
  IC50: < 50 µM

## Cn1cc(-c2cn(-c3ccc(OC(F)(F)F)cc3)c(=O)c3[nH]ncc23)cn1 [Compound 588]
[1]
  EC50: > 200 µM
[2]
  IC50: < 50 µM

## Cc1ccc(=O)n(-c2ccc(OC(F)(F)F)cc2)n1 [Compound 360]
[1]
  EC50: < 50 µM
[2]
  IC50: 50 to 200 µM

## Cn1cc(-c2cn(-c3ccc(OC(F)(F)F)cc3)c(=O)cc2NCc2ccc(Cl)cc2)cn1 [Compound 406]
[1]
  EC50: 50 to 200 µM
[2]
  IC50: < 50 µM

## CCn1ccc2c(-c3ccc(F)cc3)cn(-c3ccc(OC(F)(F)F)cc3)c(=O)c21 [Compound 594]
[1]
  EC50: < 50 µM
[2]
  IC50: < 50 µM

## O=c1ccc(-c2ccccc2)cn1-c1cncnc1 [Compound 300]
[1]
  EC50: > 200 µM
[2]
  IC50: > 200 µM

## Cc1nc2c(=O)n(-c3ccc(OC(F)(F)F)cc3)ccc2o1 [Compound 570]
[1]
  EC50: > 200 µM
[2]
  IC50: > 200 µM

## Cn1cc(-c2cn(-c3ccc(OC(F)(F)F)cc3)c(=O)cc2Oc2ccc(F)cc2)cn1 [Compound 410]
[1]
  EC50: < 50 µM
[2]
  IC50: < 50 µM

## Cn1cc(-c2cn(-c3ccc(OC(F)(F)F)cc3)c(=O)cc2NCc2ccc(Cl)cc2Cl)cn1 [Compound 405]
[1]
  EC50: < 50 µM
[2]
  IC50: < 50 µM

## Cc1cc(=O)n(-c2ccc(OC(F)(F)F)cc2)cc1-c1ccc(-c2cncs2)cc1 [Compound 206]
[1]
  EC50: 50 to 200 µM
[2]
  IC50: < 50 µM

## Cn1cc(-c2cn(-c3ccc(OC(F)(F)F)cc3)c(=O)c3nccnc23)cn1 [Compound 47]
[1]
  EC50: < 50 µM
[2]
  IC50: < 50 µM

## Cc1cc(=O)n(-c2ccc(Cl)cc2)cc1-c1cn[nH]c1 [Compound 431]
[1]
  EC50: > 200 µM
[2]
  IC50: 50 to 200 µM

## O=c1ccc(-c2cnn(Cc3ccccc3)c2)cn1-c1ccccc1 [Compound 385]
[1]
  EC50: 50 to 200 µM
[2]
  IC50: < 50 µM

## CCn1ccc2ccn(-c3ccc(OC(F)(F)F)cc3)c(=O)c21 [Compound 610]
[1]
  EC50: < 50 µM
[2]
  IC50: < 50 µM

## Cn1cc(-c2cn(-c3ccc(OC(F)(F)F)cc3)c(=O)cc2NCc2cccnc2)cn1 [Compound 160]
[1]
  EC50: 50 to 200 µM
[2]
  IC50: < 50 µM

## Cc1c(-c2ccc(=O)n(-c3ccc(OC(F)(F)F)cc3)c2)cnn1C [Compound 391]
[1]
  EC50: < 50 µM
[2]
  IC50: 50 to 200 µM

## Cn1cc(-c2cn(-c3ccc(OC(F)(F)F)cc3)c(=O)cc2NCc2c(F)cccc2F)cn1 [Compound 133]
[1]
  EC50: 50 to 200 µM
[2]
  IC50: 50 to 200 µM

## Cn1cc(-c2cn(-c3ccc(C#N)cc3)c(=O)c3cccnc23)cn1 [Compound 395]
[1]
  EC50: 50 to 200 µM
[2]
  IC50: 50 to 200 µM

## CCOc1ccc(-n2cc(C(F)(F)F)ccc2=O)c(C)c1 [Compound 278]
[1]
  EC50: 50 to 200 µM
[2]
  IC50: 50 to 200 µM

## CCn1ccc2c(-c3cnn(C)c3)cn(-c3ccc(OC(F)(F)F)cc3)c(=O)c21 [Compound 60]
[1]
  EC50: < 50 µM
[2]
  IC50: < 50 µM

## Cc1cc(=O)n(-c2ccc(OC(F)(F)F)cc2)cc1-c1ccnnc1 [Compound 243]
[1]
  EC50: 50 to 200 µM
[2]
  IC50: > 200 µM

## Cn1cc(-c2cn(-c3ccc(OC(F)(F)F)cc3)c(=O)cc2NCc2cnccn2)cn1 [Compound 411]
[1]
  EC50: 50 to 200 µM
[2]
  IC50: < 50 µM

## Cn1cc(-c2cn(-c3ccc(Cl)cc3)c(=O)c3[nH]ccc23)cn1 [Compound 605]
[1]
  EC50: < 50 µM
[2]
  IC50: < 50 µM

## CCOc1ccc(-n2cc(-c3cnn(C)c3)c(OCCOC)cc2=O)c(C)c1 [Compound 550]
[1]
  EC50: < 50 µM
[2]
  IC50: < 50 µM
